# “Also recorded” adds a separate entry of the source.
# How the values were obtained:
# [1] = test system: patients with diabetic nephropathy; assay: Clinical Phase 2a study, ACR in patients with diabetic nephropathy; type: in vivo, human; settings: for Average baseline ACR / Average ACR (4 weeks): doses 0.3 and 0.625 mg/kg daily pooled
# Description: A clinical Phase 2a study with compound 1 was conducted in patients with diabetic nephropathy. The patients were divided into two different subgroups having either macroalbuminuria (ACR>300 mg/g) or microalbuminuria (ACR 30-300 mg/g), and each subgroup were treated with 0.3 mg of compound 1/kg daily or 0.625 mg of compound 1/kg daily for 4 weeks.
# sTNFR2 = assay: Urine sTNFR2-to-creatinine in Px-UNx diabetic nephropathy rat model (ELISA); type: in vivo; settings: for urine concentration of sTNFR2 corrected for urine creatinine: Group 3, Px-UNx rats, 1 mg/kg
# Description: (§1) In the examples below, the sTNFR1 and sTNFR2 were measured using the commercial ELISA kits mouse/rat TNFRI/TNFRII Quantikine ELISA kits from R&D Systems according to the manufacturers protocol. However, for the purpose of measuring the sTNFR1 and sTNFR2 in humans for determining the relevant population groups according the present invention, the method described in Krolewski A. S. Diabetes Care 2015; 38:954-962 and Krolewski A. S. et al. Kidney Int. 2017 June; 91(6): 1300-1311 should be used.
# (§2) The pancreatectomy and uninephrectomy (see below) were conducted during a single surgical procedure (Secher T et al. Diabetes 2018 July; 67(Supplement 1)). Animals were operated in a randomized fashion during several consecutive surgical days. After an overnight full-fast with grids installed in the cages, the rats were pancreatectomized and uninephrectomized under isoflurane anesthesia. Pre-operative analgesia, antibiotics and fluid replacement were administered. Rats were not offered any food from one day before to one day after the surgery, From the second day after surgery they were fed ad libitum.
# (§3) In short, the 90% pancreatectomy is performed by removing the complete portion of the tail, body and a part of the pancreatic head by gentle abrasion with dental applicator. The major blood vessels to the stomach, spleen and gut are left intact so no other organs are compromised.
# (§4) Briefly, the right kidney is visited and the right ureter, kidney artery and kidney vein identified, and ligated with suture. Hereafter, the right kidney is removed.
# (§5) The sham operation is conducted to mimic the Px-UNx surgical procedure as best as possible. In brief, anesthesia and analgesia as well as opening and closuring the abdominal cavity are conducted as described above. After the abdominal cavity is opened, the pancreas and right kidney will be exposed, but left untouched and intact.
# Rats were placed individually in metabolic cages for 16 h from the afternoon to the next morning. […] Total urine volume was recorded, and urine stored at −80° C. […]
# (§6) Urine samples were stored at −80° C. until analysis. sTNFR1 in rat urine was measured using commercial ELISA kits (R&D Systems mouse/rat TNFRI/TNFRII Quantikine ELISA kits) according to the manufacturer's instructions. Urine creatinine was measured using the CREP2 kit (Roche Diagnostics, Germany) on the Cobas™ C-501 autoanalyzer as per the manufacturer's instructions. Urinary albumin was measured using the Bethyl Laboratories rat albumin ELISA as per the manufacturer's instructions. The urinary albumin-to-creatinine ratio (UACR) was calculated. […]
# Likewise, the urine concentrations of sTNFR2 corrected for urine concentration of creatinine (pg/mg) were measured at baseline and after 4 and 7 weeks in group 3.
# sTNFR1 = assay: Urine sTNFR1-to-creatinine in Px-UNx diabetic nephropathy rat model (ELISA); type: in vivo; settings: for urine sTNFR1 corrected for creatinine, pooled data from Table 2: Treated Px-UNx rats (n = 33), doses 1, 3, 10 mg/kg pooled
# Description: Three active doses of 1, 3 and 10 mg/kg of compound 1 were administered orally once daily to 90% pancreatectomized and uninephrectomized rats over 49 days. A control group received placebo, and another control group underwent surgery to mimic the 90% pancreatectomy (Px) and uninephrectomy (UNx) without affecting the function of the kidney or the pancreas (Sham model). The Sham group also received placebo. The conclusion from the rat study was that compound 1 reduced the level of sTNFR1 in the urine over the full treatment period (see FIG. 2). […] The daily doses in the rat model may be converted into equivalent doses in humans (Guidance for Industry: Estimating the Maximum Safe Starting Dose in Initial Clinical Trials for Therapeutics in Adult Healthy Volunteers, 2005). Thus, the 1 mg/kg daily dose corresponds to a human daily dose of 0.16 mg/kg or 11.2 mg for a 70-kg patient. Likewise, a 3 mg/kg daily dose corresponds to a human daily dose of 0.48 mg/kg or 33.6 mg for a 70-kg patient. Finally, a 10 mg/kg daily dose corresponds to a human daily dose of 1.6 mg/kg or 112.7 mg for a 70-kg patient.
# as §1, §2, §3, §4, §5
# Rats were placed individually in metabolic cages for 16 h from the afternoon to the next morning. Randomized subsets of the study groups were placed in the cages over several days (as there were fewer cages than rats). Rats were supplied with chow and water ad libitum. Cage enrichment (igloo, plastic stick to sit on) was included if possible. Total urine volume was recorded, and urine stored at −80° C. Large amounts were aliquoted in several 0.5 ml Eppendorph tubes prior to freezing.
# as §6, with “instructions.” for “instructions. The urinary albumin-to-creatinine ratio (UACR) was calculated.”
structure (smiles),measurement,setting,value
"O=C(O)CC/C=C\C[C@@H]1CO[C@H](c2ccccc2Cl)O[C@@H]1c1ccccc1O [compound 1, (Z)-6-((2S,4S,5R)-2-(2-chlorophenyl)-4-(2-hydroxyphenyl)-1,3-dioxan-cis-5-yl) hex-4-enoic acid]",difference in ACR effect between the two doses,"[1]; 0.3 vs 0.625 mg/kg daily, each subgroup, 4 weeks",No statistic significant difference between the two doses
same,ACR reduction in macroalbuminuria versus microalbuminuria sub-group,"[1]; 4 weeks, doses pooled",statistic significant higher reduction in ACR
same,Average baseline ACR,"[1]; Macroalbuminuria (ACR>300 mg/g) patients, n = 11, baseline",691 mg/g
same,ACR reduction (%),"[1]; Macroalbuminuria patients, n = 11, 4 weeks vs baseline, doses pooled",26.2%
same,Average ACR (4 weeks),"[1]; Macroalbuminuria patients, n = 11, after 4 weeks",510 mg/g
same,Average baseline ACR,"[1]; Microalbuminuria (ACR 30-300 mg/g) patients, n = 38, baseline",91.8 mg/g
same,ACR reduction (%),"[1]; Microalbuminuria patients, n = 38, 4 weeks vs baseline, doses pooled",20.9%
same,Average ACR (4 weeks),"[1]; Microalbuminuria patients, n = 38, after 4 weeks",72.6 mg/g
same,reduction in ACR from baseline,"[1]; both subgroups (micro- and macroalbuminuria), 4 weeks",statistically significant reduction in ACR
same,urine concentration of sTNFR2 corrected for urine creatinine,sTNFR2; 0 weeks (baseline),4561 pg/mg
same,urine concentration of sTNFR2 corrected for urine creatinine,sTNFR2; 4 weeks,3302 pg/mg
same,urine concentration of sTNFR2 corrected for urine creatinine,sTNFR2; 7 weeks,3264 pg/mg
same,change in urine TNFR2-to-creatinine from baseline versus placebo (FIG. 3),"sTNFR2; Px-UNx rats, 3 mg/kg, p.o., 4 and 7 weeks",decreasing levels of TNFR2 but much less compared to the placebo control group
same,urine concentration of sTNFR1 corrected for urine creatinine,"sTNFR1; Group 3, Px-UNx rats, 1 mg/kg orally once daily, 0 weeks (baseline)",243.38 pg/mg
same,urine concentration of sTNFR1 corrected for urine creatinine,"sTNFR1; Group 3, Px-UNx rats, 1 mg/kg orally once daily, 4 weeks",373.28 pg/mg
same,urine concentration of sTNFR1 corrected for urine creatinine,"sTNFR1; Group 3, Px-UNx rats, 1 mg/kg orally once daily, 7 weeks",345.46 pg/mg
same,urine concentration of sTNFR1 corrected for urine creatinine,"sTNFR1; Group 4, Px-UNx rats, 3 mg/kg orally once daily, 0 weeks (baseline)",236.29 pg/mg
same,urine concentration of sTNFR1 corrected for urine creatinine,"sTNFR1; Group 4, Px-UNx rats, 3 mg/kg orally once daily, 4 weeks",313.80 pg/mg
same,urine concentration of sTNFR1 corrected for urine creatinine,"sTNFR1; Group 4, Px-UNx rats, 3 mg/kg orally once daily, 7 weeks",369.65 pg/mg
same,urine concentration of sTNFR1 corrected for urine creatinine,"sTNFR1; Group 5, Px-UNx rats, 10 mg/kg orally once daily, 0 weeks (baseline)",220.27 pg/mg
same,urine concentration of sTNFR1 corrected for urine creatinine,"sTNFR1; Group 5, Px-UNx rats, 10 mg/kg orally once daily, 4 weeks",348.50 pg/mg
same,urine concentration of sTNFR1 corrected for urine creatinine,"sTNFR1; Group 5, Px-UNx rats, 10 mg/kg orally once daily, 7 weeks",375.03 pg/mg
same,corrected urine sTNFR1 level versus placebo group,"sTNFR1; Px-UNx rats, 1, 3, 10 mg/kg, 4 and 7 weeks, compared with Px-UNx placebo",capable of decreasing the level of sTNFR1; also recorded: consistently below the values for the placebo group
same,difference in sTNFR1 effect between dosage levels,"sTNFR1; Px-UNx rats, 1, 3 or 10 mg/kg",no statistically significant difference between dosage levels
same,change in urine sTNFR1 from baseline versus placebo (FIG. 2),"sTNFR1; Px-UNx rats, pooled doses, 7-week period",significantly less than for the placebo control group
same,"urine sTNFR1 corrected for creatinine, pooled data from Table 2",sTNFR1; 0 weeks (baseline),233.3 pg/mg
same,"urine sTNFR1 corrected for creatinine, pooled data from Table 2",sTNFR1; 4 weeks,345.2 pg/mg
same,"urine sTNFR1 corrected for creatinine, pooled data from Table 2",sTNFR1; 7 weeks,363.4 pg/mg
